Consider two molecules from patent US20210214341A1, “SUBSTITUTED PYRIDINYL AZETIDINONE DERIVATIVES FOR USE IN TREATING CANCER AND OTHER DISEASES” (The Board of Regents of the University of Texas System, priority 2018, published 2021).

Test [1] has as its system pancreatic cancer cells PANC-1 (ATCC CRL-1469). Kind of test: SRB (Sulforhodamine B) assay in PANC-1 cells. The note with it: Homo sapiens, PANC-1. The class given is cell-based. The method, then: (§1) FIGS. 1A-1B show the IC50 curves of the twelve investigational β-lactams in pancreatic cancer cells PANC-1 (ATCC CRL-1469) and normal pancreatic ductal epithelial cells (ATCC CRL-4038). The GraphPad Prism software was used to process the results. The IC50 values were determined by SRB (Sulforhodamine B) assay following standard procedure. PANC-1 cells were plated in 96 well plates and treated with 1, 10, 100, 1000 and 10,000 nM of each of the drugs in triplicate for 72 hrs. Cells were fixed, washed and stained with SRB dye, the stained cells were washed, and the dye solubilized. It was read using a plate reader at 565 nm. The IC50 values were calculated assuming that the 10 μM sample has reached saturation. Following similar way, IC50 values were determined for normal pancreatic ductal epithelial cells.
(§2) As mentioned earlier, PANC-1 is referred to generically as the “gold standard of pancreatic cancers” representing as it does almost total resistance to GEM, the first line treatment currently used in clinical situations. Pancreatic cancer cells PANC-1 (ATCC CRL-1469) and normal pancreatic ductal epithelial cells (ATCC CRL-4038) were used in this study. The GraphPad Prism software was used to process the results. […] Cells were fixed, washed and stained with SRB dye, the stained cells were washed, and the dye solubilized. It was read using a plate reader at 565 nm. The IC50 values were calculated assuming that the 10 μM sample has reached saturation. Following similar way, IC50 values were determined for normal pancreatic ductal epithelial cells.

Test [2] concerns normal pancreatic ductal epithelial cells (ATCC CRL-4038). Kind of test: SRB (Sulforhodamine B) assay in normal pancreatic ductal epithelial cells. The class given is cell-based. The note with it: Epithelial cell; 2D-culture, SRB, average of 3 runs; read-out: IC50 (NPC). The method, then:
as §1, §2

The subject of test [3] is HPAF-II. The test is described as follows: Cytotoxicity IC50 in HPAF-II cells. The class given is cell-based. The note with it: Homo sapiens; HPAF-II cell line; read-out: IC50 (mean ± standard error). The source says: (§3) B. Cytotoxicity Studies: Determination of IC50 Values (Single Run) in Capan-2, HPAC. HPAF-II, and HS766T Cell Lines
(§4) Capan-2, HPAC. HPAF-H, and HS766T. The compounds A, D, E, G, and H were chosen randomly, out of twelve β-laclam molecules, to carry out this evaluation.

Test [4] has as its system Phospho-Histone H2A.X (Ser139) in PANC-1 cells. Kind of test: ICC-IF with Phospho-Histone H2A.X (Ser139) (γ-H2AX staining). The note with it: 1 μM, compared to control. The class given is cell-based, human. The text has this:
This immunocytochemistry-immunofluorescence (ICC-IF) with Phospho-Histone H2A.X (Ser139) assay enables the quantitative detection of the histone variant H2AX, phosphorylated on serine 139. This modification serves as a sensitive biomarker for the detection of such breaks, localizing the site of DNA repair. Gamma-H2AX triggers cell cycle arrest and DNA damage response repair, and this assay is used to study genome stability, the cell cycle, DNA repair, and it serves as a biomarker for cancer and offers enhanced convenience over other immunoassay technologies. The PANC-1 cells were grown, treated with 1 μM concentration of the compound “D”, fixed and strained directly in chamber slides. Cells were submerged with blocking buffer for 60 min and then incubated with primary antibody Phospho-Histone H2A.X (Ser139) for overnight at 4° C. Then the cells were rinsed for three times in 1×PBS for 5 min each. The specimen was incubated in fluorochrome-conjugated secondary antibody diluted in antibody dilution buffer for 1-2 h at room temperature in the dark and then rinsed for three times in 1×PBS for 5 min each. […]
This assay was also performed with the compound D, prior to the determination of IC50 values in normal pancreatic ductal epithelial cell lines. This assay enables the quantitative detection of the histone variant H2AX, phosphorylated on serine 139. […]

Test [5] deals with HS 766T. The test is described as follows: Cytotoxicity IC50 in HS 766T cells. It is filed as cell-based. The note with it: Homo sapiens, Hs766T; HS 766T cell line; read-out: IC50 (mean ± standard error).
Text: as §3, §4

For test [6], the system named is PANC-1 cells. The test is described as follows: BrdU incorporation immunostaining. The note with it: compared to control. The class given is cell-based, human. The procedure: BrdU (5-bromo-2′-deoxyuridine) incorporation to proceed with immunostaining coverslip slides with Prolong® Gold Antifade reagent were visualized under microscope. Alexa Fluor® 488 (green) was used for BrdU staining along with nuclear marker DAPI (blue). BrdU images were co-localized with nuclear marker DAPI blue.
Diluted BrdU in fresh, pre-warmed growth medium to a final concentration of 0.03 mg/mL. This mixture was added to cells and incubated at 37° C. for 30 min. The medium was aspirated; cells were completely covered with 70% ethanol for 5 min. The fixative was aspirated and the cells were rinsed three times in 1×PBS for 5 min each. Therefore, 1.5 mL HCl and incubated for 30 min at room temperature. Then the HCl was aspirated and rinsed to times in 1×PBS for 5 min each. Subsequent proceeding for immunostaining followed the below steps: The cells were submerged with blocking buffer for 60 min and subsequently incubated with primary antibody (BrdU Mouse mAb) for overnight at 4° C. Therefore, the cells were rinsed three times in 1×PBS for 5 min each and incubated in fluorochrome-conjugated secondary antibody diluted in antibody dilution buffer for 1-2 h at room temperature in the dark and then rinsed for three times in 1×PBS for 5 min each. Coverslip slides with Prolong® Gold Antifade reagem were visualized under microscope. […]
On the technique in general: Uptake of a labelled nucleoside into DNA is a usual measure of proliferation.

Test [7] relates to PANC-1 cells. The test is described as follows: Annexin V assay to determine apoptosis. It is filed as cell-based, human. The note with it: 0.5, 1, and 2 μM, 16 hrs. The procedure:
Cell death was identified as apoptosis through Annexin V assay. For this study, PANC-1, the most commonly known drug-resistance pancreatic cancer cell line was used. […] Error bars show standard deviation (n=3). For optimal throughput, final cell concentrations were maintained between 2×10^4 and 1×10^5 cells/well (or 1×10^5 to 5×10^5 cells/mL). Doxorubicin was used as control at a concentration of 5 μM for 16 hrs. For this study, PANC-1, the most commonly known drug-resistance pancreatic cancer cell lines were used. […] Error bars show standard deviation (n=3). For optimal throughput, final cell concentrations were maintained between 2×10^4 and 1×10^5 cells/well (or 1×10^5 to 5×10^5 cells/mL). Doxorubicin was used as a control at a concentration of 5 uM for 16 hrs (FIG. 5). Apoptosis was identified as the mechanism of cell death.

In test [8] the test system is drug-resistant pancreatic cancer cell lines. The test is described as follows: IC50 against drug-resistant pancreatic cancer cell lines. The class given is cell-based. The note with it: Homo sapiens, range over cell lines.
In test [9] the test system is CaPan-2. Kind of test: Cytotoxicity IC50 in CaPan-2 cells. The class given is cell-based. The note with it: Homo sapiens; CaPan-2 cell line; read-out: IC50 (mean ± standard error).
Text: as §3, §4

For test [10], the system named is HPAC. The test is described as follows: Cytotoxicity IC50 in HPAC cells. The note with it: Homo sapiens; HPAC cell line; read-out: IC50 (mean ± standard error). It is filed as cell-based.
Text: as §3, §4

Where [11] appears, read: 2D-culture, SRB, 72 hrs, average of 3 runs, read-out: IC50 (PANC-1).

Like-named read-outs stand apart in the source and are kept apart here.

On to `O=C1[C@@H](OS(=O)(=O)C2CCC2)[C@H](c2ccc(F)cn2)N1c1cc2c3ccccc3ccc2c2ccccc12` (racemic) [D, (±)-Trans-N-(chrysen-6-yl)-2-(5-fluoropyridin-2-yl)-4-oxoazetidin-3-yl cyclobutanesulfonate], for which the IC50 was 0.118 µM in [1] (setting [11]), 0.0608 µM in [2], 1.39 ± 0.4 µM in test [3] and 0.73 ± 0.4 µM in test [5]. Further, the “γ-H2AX (phospho-H2AX) staining” value in [4] is reported as “positive staining”. The “rate of DNA replication and subsequent cell proliferation (BrdU incorporation)” value in test [6] is “significantly low”. Also, the “mechanism of cell death” value in test [7] was “Apoptosis”.
Regarding `Nc1ccn([C@@H]2O[C@H](CO)[C@@H](O)C2(F)F)c(=O)n1` [Gemcitabine, reference compound], the 50% inhibitory concentration (IC50) in test [1] (setting [11]) is 37.9 µM; in test [1] (in vitro, triplicate, read-out: PANC-1 cell lines IC50), 37.9 µM; in [8], no less than 16 µM; in test [9], greater than 50 µM; in test [3] it was greater than 50 µM; in [5], 16.3 ± 0.6 µM. In test [10], the IC50 is greater than 50 µM.

The IC50 is the concentration that inhibits the measured activity by half.
